For data set [1], the target named is T1, P. falciparum SHMT (PfSHMT) (Plasmodium falciparum, UniProt Q8I566).
T1 sequence (Q8I566 1-442): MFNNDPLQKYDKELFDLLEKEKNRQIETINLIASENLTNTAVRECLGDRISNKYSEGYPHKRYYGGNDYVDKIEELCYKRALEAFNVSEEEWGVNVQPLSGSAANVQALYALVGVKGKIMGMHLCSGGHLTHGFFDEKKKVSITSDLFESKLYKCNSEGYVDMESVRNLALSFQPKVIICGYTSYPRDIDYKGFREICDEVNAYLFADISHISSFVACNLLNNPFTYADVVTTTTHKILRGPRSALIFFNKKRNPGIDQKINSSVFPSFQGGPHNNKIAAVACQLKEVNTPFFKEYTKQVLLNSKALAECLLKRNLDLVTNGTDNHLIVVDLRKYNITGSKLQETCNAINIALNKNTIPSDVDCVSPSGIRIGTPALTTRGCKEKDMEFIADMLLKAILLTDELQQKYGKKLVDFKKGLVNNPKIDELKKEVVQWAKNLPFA
Description: PfSHMT activity inhibition by antifolates. In kind it is biochemical.

Data set [2] deals with P. falciparum SHMT apo enzyme (Plasmodium falciparum, UniProt Q8I566). Description: Activity of apo PfSHMT with and without PLP. In kind it is biochemical. Particulars: apo enzyme with vs without PLP (Fig 4A).
Data set [3] addresses PfSHMT protein interaction with SHMT or DHFR-TS mRNA (Plasmodium falciparum, UniProt Q8I566). As to the kind of experiment: RNA-protein interaction gel shift, competition with substrates. In kind it is binding. Particulars: 500 nM SHMT protein, 0.5 nM labeled RNA; 125 μM PLP, 3 mM serine, 3 mM THF. In general terms: Mobility shift assays separate free from complexed probe on a gel.

For data set [4], the target named is T1, P. falciparum SHMT (PfSHMT). As to the kind of experiment: Michaelis-Menten constants of PfSHMT substrates. The data set is classed as biochemical.
The data set “SEC” deals with the molecule itself. As to the kind of experiment: SEC. For orientation: In gel filtration, larger molecules generally elute earlier.

In general, IC50 refers to the concentration that inhibits the measured activity by half. Read a low IC50 as greater potency. In data set [1], `Cc1nc2ccc(CN(C)c3ccc(C(=O)N[C@@H](CCC(=O)O)C(=O)O)s3)cc2c(=O)[nH]1` [D1694] gave an IC50 above 500 µM. As for `Cc1ncc(COP(=O)(O)O)c(C=O)c1O` [PLP, pyridoxal 5’-phosphate], the “Enzyme activity of apo enzyme with PLP added to the reaction” value in data set [2] was “increased by more than ten fold”. In addition, in data set [3], the “Effect on PfSHMT protein interaction with SHMT or DHFR-TS mRNA” value is “not abrogated”.

In data set [1], `CN(Cc1cnc2nc(N)nc(N)c2n1)c1ccc(C(=O)N[C@@H](CCC(=O)O)C(=O)O)cc1` [methotrexate] yielded an IC50 above 500 µM. In data set [1], `Nc1nc2[nH]cc(CCc3ccc(C(=O)N[C@@H](CCC(=O)O)C(=O)O)cc3)c2c(=O)[nH]1` [pemetrexed] gave an IC50 above 500 µM. In data set [1], `CCc1nc(N)nc(N)c1-c1ccc(Cl)cc1` [pyrimethamine] had an IC50 above 500 µM. As for `N[C@@H](CO)C(=O)O` [serine], the “Effect on PfSHMT protein interaction with SHMT or DHFR-TS mRNA” value in data set [3] is “not abrogated”.

The term Vmax denotes the rate approached at saturating substrate. As a reminder, the Km is the substrate concentration at which the rate is half of its maximum. As to tetrahydrofolate [THF], in data set [4] (from velocity vs. substrate fit), the Vmax is reported as 188.5 pmol/min. Moreover, the Km in data set [4] (read-out: Km, P falciparum, Table 1, P. falciparum SHMT) was found to be 3.4 mM.

B1: Plasmodium falciparum serine hydroxymethyltransferase with an N-terminal histidine tag (enzyme, Plasmodium falciparum (strain 3D7), UniProt Q8I566 1-442, looked up)
chain: MFNNDPLQKYDKELFDLLEKEKNRQIETINLIASENLTNTAVRECLGDRISNKYSEGYPHKRYYGGNDYVDKIEELCYKRALEAFNVSEEEWGVNVQPLSGSAANVQALYALVGVKGKIMGMHLCSGGHLTHGFFDEKKKVSITSDLFESKLYKCNSEGYVDMESVRNLALSFQPKVIICGYTSYPRDIDYKGFREICDEVNAYLFADISHISSFVACNLLNNPFTYADVVTTTTHKILRGPRSALIFFNKKRNPGIDQKINSSVFPSFQGGPHNNKIAAVACQLKEVNTPFFKEYTKQVLLNSKALAECLLKRNLDLVTNGTDNHLIVVDLRKYNITGSKLQETCNAINIALNKNTIPSDVDCVSPSGIRIGTPALTTRGCKEKDMEFIADMLLKAILLTDELQQKYGKKLVDFKKGLVNNPKIDELKKEVVQWAKNLPFA
The stoichiometry N is a count of units in the complex or per binding partner. Regarding B1, the “stoichiometry N” value in “SEC” is 2.

These data come from PMC2741015 (Molecular and biochemical parasitology, 2009).
